Measurements taken from patent publication US20110183978A1, “Phenylpyri(mi)dinylazoles” (Bayer CropScience AG, priority 2009, published 2011).

Assay: physchem

Row | SMILES | chromatographic logP (pH 2.7, logP (pH 2.7)) | chromatographic logP (pH 2.3, LogP (pH 2.3))
1 | CC(C)n1cc(-c2ccnc(NC(=O)C3CC3)c2)c(-c2ccc(F)cc2)n1 [[I-c-1], N-{4-[3-(4-Fluorophenyl)-1-isopropyl-1H-pyrazol-4-yl]pyridin-2-yl}cyclopropanecarboxamide] | 2.07 | –
2 | CC(C)Cn1cc(-c2ccnc(NC(=O)C(C)C)c2)c(-c2ccc(F)cc2)n1 [[I-c-2], N-{4-[3-(4-fluorophenyl)-1-isobutyl-1H-pyrazol-4-yl]pyridin-2-yl}-2-methylpropanamide] | 2.89 | –
3 | CCC(=O)Nc1nccc(-c2cn(C(C)C)nc2-c2ccc(F)cc2)n1 [[I-g-1], N-{4-[3-(4-Fluorophenyl)-1-isopropyl-1H-pyrazol-4-yl]pyrimidin-2-yl}propanamide] | 2.35 | –
4 | CC(C)C(=O)Nc1cc(Br)ccn1 [[IV-c-1], N-(4-bromopyridin-2-yl)-2-methylpropanamide] | 2.09 | –
5 | CC(C)n1cc(B2OC(C)(C)C(C)(C)O2)c(-c2ccc(F)cc2)n1 [[V-1], 3-(4-Fluorophenyl)-1-isopropyl-4-(4,4,5,5-tetramethyl-1,3,2-dioxaborolan-2-yl)-1H-pyrazole] | 4.51 | 4.46
6 | COCCn1cc(B2OC(C)(C)C(C)(C)O2)c(-c2ccc(F)cc2)n1 [[V-2], 3-(4-Fluorophenyl)-1-(2-methoxyethyl)-4-(4,4,5,5-tetramethyl-1,3,2-dioxaborolan-2-yl)-1H-pyrazole] | 3.58 | 3.58
7 | CC(C)Cn1cc(B2OC(C)(C)C(C)(C)O2)c(-c2ccc(F)cc2)n1 [[V-3], 3-(4-Fluorophenyl)-1-isobutyl-4-(4,4,5,5-tetramethyl-1,3,2-dioxaborolan-2-yl)-1H-pyrazole] | 4.76 | 4.89
8 | CC1(C)OB(c2cn(CC(F)F)nc2-c2ccc(F)cc2)OC1(C)C [[V-4], 1-(2,2-difluoroethyl)-3-(4-fluorophenyl)-4-(4,4,5,5-tetramethyl-1,3,2-dioxaborolan-2-yl)-1H-pyrazole] | 3.84 | 3.84
9 | CC(C)On1cc(B2OC(C)(C)C(C)(C)O2)c(-c2ccc(F)cc2)n1 [[V-5], 3-(4-Fluorophenyl)-1-isopropoxy-4-(4,4,5,5-tetramethyl-1,3,2-dioxaborolan-2-yl)-1H-pyrazole] | 4.81 | 4.81
10 | CC1(C)OB(c2cn(OC3CCCC3)nc2-c2ccc(F)cc2)OC1(C)C [[V-6], 1-(Cyclopentyloxy)-3-(4-fluorophenyl)-4-(4,4,5,5-tetramethyl-1,3,2-dioxaborolan-2-yl)-1H-pyrazole] | 5.51 | 5.51
11 | CC1(C)OB(c2cn(C3CC3)nc2-c2ccc(F)cc2)OC1(C)C [[V-7], 1-Cyclopropyl-3-(4-fluorophenyl)-4-(4,4,5,5-tetramethyl-1,3,2-dioxaborolan-2-yl)-1H-pyrazole] | 3.47 | 3.47
12 | CC1(C)OB(c2cn(CC3CC3)nc2-c2ccc(F)cc2)OC1(C)C [[V-8], 1-(Cyclopropylmethyl)-3-(4-fluorophenyl)-4-(4,4,5,5-tetramethyl-1,3,2-dioxaborolan-2-yl)-1H-pyrazole] | 4.42 | 4.42
13 | Cn1cc(B2OC(C)(C)C(C)(C)O2)c(-c2ccc(F)cc2)n1 [[V-9], 3-(4-Fluorophenyl)-1-methyl-4-(4,4,5,5-tetramethyl-1,3,2-dioxaborolan-2-yl)-1H-pyrazole] | 3.47 | 3.47
14 | CC1(C)OB(c2cn(CCCl)nc2-c2ccc(F)cc2)OC1(C)C [[V-10], 1-(2-Chloroethyl)-3-(4-fluorophenyl)-4-(4,4,5,5-tetramethyl-1,3,2-dioxaborolan-2-yl)-1H-pyrazole] | 4.06 | 4.06
15 | CCn1cc(Br)c(-c2ccc(F)cc2)n1 [[VI-2], 4-Bromo-1-ethyl-3-(4-fluorophenyl)-1H-pyrazole] | 3.37 | 3.32
16 | CCn1ncc(Br)c1-c1ccc(F)cc1 [[VI-3], 4-Bromo-1-ethyl-5-(4-fluorophenyl)-1H-pyrazole] | 3.15 | –
17 | CC(C)Cn1cc(Br)c(-c2ccc(F)cc2)n1 [[VI-4], 4-Bromo-3-(4-fluorophenyl)-1-isobutyl-1H-pyrazole] | 4.34 | 4.34
18 | CC(C)Cn1ncc(Br)c1-c1ccc(F)cc1 [[VI-5], 4-Bromo-5-(4-fluorophenyl)-1-isobutyl-1H-pyrazole] | 4.04 | –
19 | COCCn1cc(Br)c(-c2ccc(F)cc2)n1 [[VI-6], 4-Bromo-3-(4-fluorophenyl)-1-(2-methoxyethyl)-1H-pyrazole] | 3.08 | 3.08
20 | COCCn1ncc(Br)c1-c1ccc(F)cc1 [[VI-7], 4-Bromo-5-(4-fluorophenyl)-1-(2-methoxyethyl)-1H-pyrazole] | 2.9 | –

Results, then the molecule that gave them:

Row | chromatographic logP (pH 2.7, logP (pH 2.7)) | chromatographic logP (pH 2.3, LogP (pH 2.3)) | SMILES
21 | 1.4 | – | CC(C)n1cc(-c2ccncc2)c(-c2c(F)cccc2F)n1 [[I-d-1], 4-[3-(2,6-Difluorophenyl)-1-isopropyl-1H-pyrazol-4-yl]pyridine]
22 | 1.54 | – | CC(C)n1ncc(-c2ccncc2)c1-c1c(F)cccc1F [[I-d-2], 4-[5-(2,6-Difluorophenyl)-1-isopropyl-1H-pyrazol-4-yl]pyridine]
23 | 1.22 | 1.22 | CC(C)n1cc(-c2ccnc(N)c2)c(-c2ccc(F)cc2)n1 [[III-1], 4-[3-(4-Fluorophenyl)-1-isopropyl-1H-pyrazol-4-yl]pyridin-2-amine]
24 | 0.98 | 0.98 | COCCn1cc(-c2ccnc(N)c2)c(-c2ccc(F)cc2)n1 [[III-2], 4-[3-(4-Fluorophenyl)-1-(2-methoxyethyl)-1H-pyrazol-4-yl]pyridin-2-amine]
25 | 0.97 | 0.97 | CCn1cc(-c2ccnc(N)c2)c(-c2ccc(F)cc2)n1 [[III-3], 4-[1-Ethyl-3-(4-fluorophenyl)-1H-pyrazol-4-yl]pyridin-2-amine]
26 | 1.03 | 1.03 | Nc1cc(-c2cn(CC(F)F)nc2-c2ccc(F)cc2)ccn1 [[III-4], 4-[1-(2,2-Difluoroethyl)-3-(4-fluorophenyl)-1H-pyrazol-4-yl]pyridin-2-amine]
27 | 0.71 | 0.71 | Cn1cc(-c2ccnc(N)c2)c(-c2ccc(F)cc2)n1 [[III-5], 4-[3-(4-Fluorophenyl)-1-methyl-1H-pyrazol-4-yl]pyridin-2-amine]
28 | 1.54 | – | CC(C)n1cc(-c2ccnc(N)n2)c(-c2ccc(F)cc2)n1 [[III-a-1], 4-[3-(4-Fluorophenyl)-1-isopropyl-1H-pyrazol-4-yl]pyrimidin-2-amine]
29 | 0.6 | – | Cc1[nH]nc(-c2ccc(F)cc2)c1-c1ccncc1 [[IX-b-1], 4-[3-(4-Fluorophenyl)-5-methyl-1H-pyrazol-4-yl]pyridine]
30 | 0.92 | – | Fc1ccc(-c2[nH]nc(C3CC3)c2-c2ccncc2)cc1 [[IX-b-2], 4-[3-(4-Fluorophenyl)-5-cyclopropyl-1H-pyrazol-4-yl]pyridine]
31 | 2.86 | – | Cn1cc(Br)c(-c2ccc(F)cc2)n1 [[V1-8], 4-Bromo-3-(4-fluorophenyl)-1-methyl-1H-pyrazole]
32 | 3.63 | 4.77 | CC(c1ccccc1F)n1cc(Br)c(-c2ccc(F)cc2)n1 (stereo not drawn) [[VI-9], 4-bromo-3-(4-fluorophenyl)-1-[1-(2-fluorophenyl)ethyl]-1H-pyrazole]
